Series [1] relates to human immunodeficiency virus (HIV). Kind of series: Anti-HIV activity: protection of HIV-infected MT-4 cells from cell death, MTT method. The following applies: for SI (CC50 /ED50): rough ratio of CC50 to EC50, MT-4 cells. Here is the method: To a 96-well microtiter plate, HIV-infected MT-4 cells (2.5×10^4 cells/well, Multiplicity of infection (MOI): 0.001) was added immediately after the infection along with test materials in various concentrations. […] On the other hand, in order to know the cytotoxicity of the test substances on the MT-4 cells, virus-non-infected cells were cultured with the test materials in various concentrations as described above. […] And the rough ratio of CC50 to EC50 (CC50 /EC50) is expressed as an effective ratio (SI).
(Tetrazolium assays rely on reduction of a dye to a coloured formazan, in cell work by metabolically active cells.)

The subject of series [2] is MT-4 cells. Kind of series: Cytotoxicity on virus-non-infected MT-4 cells, MTT method. The class given is cell-based. The following applies: 5 days at 37° C.
The mark [3] stands for this setting: HIV-infected MT-4 cells, MOI 0.001, 5 days at 37° C., MTT method.

Where a SMILES comes first, the peptide text is derived from it.

On to `N=C(N)NCCC[C@H](NC(=O)[C@H](CS)NC(=O)[C@H](CCCCN)NC(=O)[C@H](CCCNC(=N)N)NC(=O)[C@H](Cc1ccc(O)cc1)NC(=O)[C@H](CS)NC(=O)[C@H](Cc1ccc(O)cc1)NC(=O)CNC(=O)[C@H](CCCCN)NC(=O)[C@H](Cc1ccc(O)cc1)NC(=O)[C@H](CS)NC(=O)[C@H](CCCCN)NC(=O)[C@H](CCCNC(=N)N)NC(=O)[C@H](Cc1ccc(O)cc1)NC(=O)[C@H](CS)NC(=O)[C@H](Cc1c[nH]c2ccccc12)NC(=O)[C@H](CCCNC(=N)N)NC(=O)[C@@H](N)CCCNC(=N)N)C(N)=O` [Reduced form of polypeptide (1)] (H-RRWCYRKCYKGYCYRKCR-NH2), for which the “EC50 (concentration to suppress 50% of cell death due to HIV infection)” value in series [1] (setting [3]) is 0.0052 µg/mL. In series [2], the “CC50 (50% cytotoxic concentration)” value stood at 41.27 µg/mL.
In the case of `N=C(N)NCCC[C@H](NC(=O)[C@@H]1CSSC[C@H](NC(=O)[C@H](Cc2c[nH]c3ccccc23)NC(=O)[C@H](CCCNC(=N)N)NC(=O)[C@@H](N)CCCNC(=N)N)C(=O)N[C@@H](Cc2ccc(O)cc2)C(=O)N[C@@H](CCCNC(=N)N)C(=O)N[C@@H](CCCCN)C(=O)N[C@H]2CSSC[C@H](NC(=O)[C@H](Cc3ccc(O)cc3)NC(=O)CNC(=O)[C@H](CCCCN)NC(=O)[C@H](Cc3ccc(O)cc3)NC2=O)C(=O)N[C@@H](Cc2ccc(O)cc2)C(=O)N[C@@H](CCCNC(=N)N)C(=O)N[C@@H](CCCCN)C(=O)N1)C(N)=O` [Polypeptide (1)] (HELM PEPTIDE1{R.R.W.C.Y.R.K.C.Y.K.G.Y.C.Y.R.K.C.R.[am]}$PEPTIDE1,PEPTIDE1,4:R3-17:R3|PEPTIDE1,PEPTIDE1,8:R3-13:R3$$$V2.0; bridges inferred), the “EC50 (concentration to suppress 50% of cell death due to HIV infection)” value in series [1] (setting [3]) came to 0.0047 µg/mL. Further, the “CC50 (50% cytotoxic concentration)” value in series [2] stood at 41.53 µg/mL.
Taken in the same sequence, the figures for `N=C(N)NCCC[C@H](NC(=O)[C@H](CS)NC(=O)[C@H](CCCCN)NC(=O)[C@H](CCCNC(=N)N)NC(=O)[C@H](Cc1ccc(O)cc1)NC(=O)[C@@H]1CCCN1C(=O)[C@@H](CCCCN)NC(=O)[C@H](CCCCN)NC(=O)[C@H](CCCNC(=N)N)NC(=O)[C@H](Cc1ccc(O)cc1)NC(=O)[C@H](CS)NC(=O)[C@H](Cc1c[nH]c2ccccc12)NC(=O)[C@H](CCCNC(=N)N)NC(=O)[C@@H](N)CCCNC(=N)N)C(N)=O` [Reduced form of] (HELM PEPTIDE1{R.R.W.C.Y.R.K.[dK].P.Y.R.K.C.R.[am]}$$$$V2.0) were 0.040 µg/mL and 41.17 µg/mL.
As to `Cc1cn([C@H]2C[C@H](N=[N+]=[N-])[C@@H](CO)O2)c(=O)[nH]c1=O` [AZT, reference compound], the EC50 in series [1] (read-out: EC50 (concentration to suppress 50% of cell death due to HIV infection), HIV-infected MT-4 cells, MOI 0.001, 5 days at 37° C., MTT method, unit μM printed with the compound) came out at 0.0011 µM. Besides, the “SI (CC50 /ED50)” value in series [1] amounted to 1716. In addition, in series [2] (unit μM printed with the compound), the “CC50 (50% cytotoxic concentration)” value was found to be 1.93 µM.
As to `N=C(N)NCCC[C@H](NC(=O)[C@@H]1CSSC[C@H](NC(=O)[C@H](Cc2c[nH]c3ccccc23)NC(=O)[C@H](CCCNC(=N)N)NC(=O)[C@@H](N)CCCNC(=N)N)C(=O)N[C@@H](Cc2ccc(O)cc2)C(=O)N[C@@H](CCCNC(=N)N)C(=O)N[C@@H](CCCCN)C(=O)N[C@H](CCCCN)C(=O)N2CCC[C@H]2C(=O)N[C@@H](Cc2ccc(O)cc2)C(=O)N[C@@H](CCCNC(=N)N)C(=O)N[C@@H](CCCCN)C(=O)N1)C(N)=O` [Polypeptide (2), Arg-Arg-Trp-Cys-Tyr-Arg-Lys----------DLys-Pro-----------Tyr-Arg-Lys-Cys-Arg-NH2] (HELM PEPTIDE1{R.R.W.C.Y.R.K.[dK].P.Y.R.K.C.R.[am]}$PEPTIDE1,PEPTIDE1,4:R3-13:R3$$$V2.0), the “EC50 (concentration to suppress 50% of cell death due to HIV infection)” value in series [1] (setting [3]) was 0.029 µg/mL. For the same compound, the “SI (CC50 /ED50)” value in series [1] is 1565. Besides, the “CC50 (50% cytotoxic concentration)” value in series [2] is 44.60 µg/mL.
Consider Dextran sulfate [reference compound], for which the “EC50 (concentration to suppress 50% of cell death due to HIV infection)” value in series [1] (setting [3]) came out at 0.68 µg/mL.

Values taken from patent US6329498A, “Polypeptide transition metal salts and method of enhancing anti-HIV activity of polypeptide” (Seikagaku Corporation, priority 1996, dated 2001).
